Earlier results as cited in patent US11975000B1, “Tadalafil oral transmucosal film” (Xiamen LP Pharmaceutical Co., Ltd., priority 2023, dated 2024).

Assays:
[1] = in vivo

Solubility (in words): practically insoluble in water
Water solubility (in water at 25° C., U.S. Pat. No. 6,841,167): about 2 μg/mL
Structure (SMILES): CN1CC(=O)N2[C@H](c3ccc4c(c3)OCO4)c3[nH]c4ccccc4c3C[C@@H]2C1=O [Tadalafil, (6R-trans)-6-(1,3-benzodioxol-5-yl) 2,3,6,7,12,12a-hexahydro-2-methyl-pyrazino[1′,2′:1,6]pyrido[3,4-b]indole-1,4-dione]
Duration of action [1]: 24 to 36 h
Reported maximum duration [1]: 72 h
